This is an account of results in patent US12357623B2, “Method for treating a disease or condition using a pyrazole compound or formulation thereof” (Rigel Pharmaceuticals, Inc., priority 2021, dated 2025).

Each structure is given as a SMILES string. Counter-ions that a name gives are not always drawn.

The nature of data set [1]: DVS isotherm of spray-dried formulation and crystalline compound I-1. The format is physicochemical. Conditions: 25° C.; compared with the dispersion. As to the method: FIG. 1 is a dynamic vapor sorption (DVS) plot of percent change in mass versus target relative humidity (RH), illustrating the change in mass of one embodiment of the disclosed spray-dried formulation at 25° C. under various relative humidity conditions. The plot provides two isotherms: 1 is the sorption plot, illustrating the change in mass with increasing relative humidity steps; and 2 is the desorption plot, illustrating the change in mass with decreasing relative humidity steps.
FIG. 6 is a DVS plot of percent change in mass versus target relative humidity, illustrating the change in mass of one embodiment of a crystalline sample of compound I-1 at 25° C. under various relative humidity conditions. The plot provides two isotherms: 1 is the sorption plot, illustrating the change in mass with increasing relative humidity steps; and 2 is the desorption plot, illustrating the change in mass with decreasing relative humidity steps.
FIGS. 1-10 provide structural and stability data concerning the spray-dried formulation (FIGS. 1-5) and a crystalline sample of compound I-1 (FIGS. 6-10). FIGS. 1 and 6 provide DVS isotherm plots for the spray-dried formulation and crystalline compound, respectively.

A short description of data set [2]: Rat AUC and percent bioavailability of compound I-1 after administration of potential prodrugs. Also on record: species or system Rats. Conditions: in vivo, parent, iv 1 mg/kg, read-out: Rat AUClast of compound I-1.
Data set [3] is described as follows: Pharmacokinetics in cynomolgus monkeys (co-crystal and spray-dried dispersion capsules). As to conditions: male cynomolgus monkeys (n=3/group), capsule equivalent to 25 mg compound I-1. The format is in vivo. As for the experimental part:
Two groups of male cynomolgus monkeys (n=3/group) were administered test articles in a 3-way crossover design as indicated in Table 2. The washout period between doses was 3-4 days. Test article capsules were prepared such that each capsule contained an equivalent of 25 mg of free base compound I-1. The organic stock solution of compound I-1 was prepared at a concentration of 5 mg/ml using TPGS/PEG400/PG, and was diluted with apple juice within 1 hour of dosing (PO) at 1 part stock solution to 3 parts apple juice.
FIGS. 11-14 provide graphs of the plasma concentrations obtained from administering the co-crystal formulations of compound I-1 to monkeys. And Table 3 provides pharmacokinetic (PK) data for the co-crystal formulations, including the average area under the curve (AUC) and percent bioavailability.
FIG. 19 provides PK data for one embodiment of the disclosed spray-dried formulation, and the organic/juice formulation.

Data set [4] is described as follows: Hygroscopicity evaluation (DVS) of salts of compound I-18. In kind it is physicochemical. Conditions: 25° C., listed as Choline salt. As to the method: To investigate the solid form stability as a function of humidity, DVS isotherm plot of the K salt, Arginine salt, Choline salt and Tris salt were collected at 25° C. between 0 and 95% RH.
Data set [5] can be described thus: Physical and chemical stability of salts of compound I-18. Conditions: for Area (%) of peak at RRT 1.00: main peak; for Area (%) of peak at RRT 1.17: peak corresponds to I-1 formed by hydrolysis. The format is physicochemical. As for the experimental part: The physical and chemical stability of the K salt, Arginine salt, Choline salt and Tris salt were evaluated under conditions of 25° C./60% RH and 40° C./75% RH for 1 week. Each sample was added into 3 mL glass vials, sealed by parafilm with several holes, and kept under tested condition. After one week, samples was taken for XRPD and HPLC purity test.

The mark [6] stands for this setting: 25° C./60% RH, 1 week, listed as choline salt.
[7] abbreviates: 25° C./60% RH/1 week, listed as Choline salt.
Setting [8] is: 40° C./75% RH, 1 week, listed as choline salt.
Where [9] appears, read: Initial, listed as choline salt.

On to `CCO[C@H]1CC[C@H](n2cc(NC(=O)c3csc(-c4cn[nH]c4)n3)c(-c3nc(F)ccc3F)n2)CC1` [Compound I-1, N-(3-(3,6-difluoropyridin-2-yl)-1-((1r, 4r)-4-ethoxycyclohexyl)-1H-pyrazol-4-yl)-2-(1H-pyrazol-4-yl)thiazole-4-carboxamide], for which the “change in mass when exposed to higher relative humidity (DVS)” value in data set [1] is on record as “substantially smaller change in mass”. In addition, the AUC(0-t) in data set [2] came to 1050 ng·h/mL.
Take `CCO[C@H]1CC[C@H](n2cc(NC(=O)c3csc(-c4cn[nH]c4)n3)c(-c3nc(F)ccc3F)n2)CC1.O=P(O)(O)O` [Compound I-104, N-(3-(3,6-difluoropyridin-2-yl)-1-((1r, 4r)-4-ethoxycyclohexyl)-1H-pyrazol-4-yl)-2-(1H-pyrazol-4-yl)thiazole-4-carboxamide phosphate]: the “percent bioavailability (% F) of compound I-1” value in data set [3] was 7.9%.
Turning to `CCO[C@H]1CC[C@H](n2cc(NC(=O)c3csc(-c4cnn(C(C)OP(=O)(O)O)c4)n3)c(-c3nc(F)ccc3F)n2)CC1` (stereo partly drawn) [Compound I-111, 1-(4-(4-((3-(3,6-difluoropyridin-2-yl)-1-((1r, 4r)-4-ethoxycyclohexyl)-1H-pyrazol-4-yl)carbamoyl)thiazol-2-yl)-1H-pyrazol-1-yl)ethyl dihydrogen phosphate choline salt], the “water uptake (DVS)” value in data set [4] (at 70% RH) turned out to be 3.66%. Besides, the “water uptake (DVS)” value in data set [4] (at 95% RH) was determined as 32.4%. In data set [5] (setting [6]), the “Area (%) of peak at RRT 0.77” value was 0.04%, the “Area (%) of peak at RRT 1.35” value came out at 0.10%, the “Area (%) of peak at RRT 1.45” value is 0.07% and the “Area (%) of peak at RRT 1.71” value was 0.05%. For the same molecule, in data set [5] (setting [6]), the “Area (%) of peak at RRT 1.73” value stood at 0.46%, the HPLC purity change result is “no HPLC purity decrease”, the “Area (%) of peak at RRT 1.00” value came out at 98.66% and the “Area (%) of peak at RRT 1.17” value came out at 0.58%. Further, in data set [5] (setting [7]), the “Form change (XRPD)” value was “no form change and No”; the Purity/Initial purity is recorded as 100.0%. In data set [5] (setting [8]), the “Area (%) of peak at RRT 0.77” value was 0.04%, the “Area (%) of peak at RRT 1.35” value came out at 0.14%, the “Area (%) of peak at RRT 1.45” value came out at 0.11% and the “Area (%) of peak at RRT 1.71” value amounted to 0.08%. In addition, in data set [5] (setting [8]), the “Area (%) of peak at RRT 1.73” value was determined as 0.46%, the HPLC purity change result is “a purity decrease was observed”, the “Area (%) of peak at RRT 1.00” value is on record as 97.81% and the “Area (%) of peak at RRT 1.17” value was determined as 1.31%. In addition, the “Form change (XRPD)” value in data set [5] (40° C./75% RH/1 week, listed as Choline salt) is “no form change and No”. Also, the “Area (%) of peak at RRT 1.35” value in data set [5] (Initial) is less than 0.03%. Moreover, in data set [5] (setting [9]), the “Area (%) of peak at RRT 0.77” value stood at 0.03%, the “Area (%) of peak at RRT 1.13” value is given as 0.06%, the “Area (%) of peak at RRT 1.45” value is given as 0.06% and the “Area (%) of peak at RRT 1.71” value was 0.06%. Further, in data set [5] (setting [9]), the “Area (%) of peak at RRT 1.73” value is given as 0.33%, the “Area (%) of peak at RRT 1.00” value is given as 98.70% and the “Area (%) of peak at RRT 1.17” value worked out at 0.75%. For the same molecule, the Initial purity in data set [5] (initial, before storage, listed as Choline salt) was 98.70 area %.
